Assay results as given in US8927717B1, “Thiochromeno[2,3-c]quinolin-12-one derivatives, preparation method and application thereof” (National Defense Medical Center, priority 2014, dated 2015).

Legend:
Assay type in all cases: cell-based
786-0 = details: 786-0
UACC-62 = details: UACC-62
K-562 = details: K-562
HT29 = details: HT29
COLO 205 = details: COLO 205
NCI-H23 = details: NCI-H23
ACHN = details: ACHN
MDA-MB-435 = details: MDA-MB-435
NCI-H460 = details: NCI-H460
NCI-H522 = details: NCI-H522
OVCAR-8 = details: OVCAR-8
KM12 = test: cells; details: KM12
SK-OV-3 = details: SK-OV-3
M14 = details: M14
PC-3 = details: PC-3
SR = details: SR
U251 = details: U251, five dose
RPMI-8226 = details: RPMI-8226
MOLT-4 = details: MOLT-4
SNB-19 = details: SNB-19
T-47D = details: T-47D
60 cancer cell lines = test: NCI 60-cell screen, SRB, whole panel (mean, delta, range)
RXF 393 = details: RXF 393; 10^−5 molar
MALME-3M = details: MALME-3M
SW-620 = details: SW-620
MDA-MB-486 = details: MDA-MB-486
HCT-116 = details: HCT-116
SK-MEL-28 = details: SK-MEL-28
MCF7 = details: MCF7
HOP-62 = details: HOP-62
MDA-MB-231/ATCC = details: MDA-MB-231/ATCC
NCI/ADR-RES = details: NCI/ADR-RES
HL-60(TB) = details: HL-60(TB); 10^−5 molar
NCI-H226 = details: NCI-H226
SF-268 = details: SF-268
LOX IMVI = details: LOX IMVI, five dose
SK-MEL-5 = details: SK-MEL-5
A498 = details: A498
TK-10 = details: TK-10
[1] = Homo sapiens, five dose, read-out: LC50 (the source's name)

O=c1c2cc(Cl)ccc2sc2c(NCc3ccccc3)nc3ccccc3c12 [Compound N25, 6-(Benzylamino)-10-chloro-12H-thiochromeno[2,3-c]quinolin-12-one]
Growth percent (786-0; 10^−5 molar): 72.48% | TGI (786-0; five dose): 48.70 µM | GI50 (786-0; Homo sapiens, five dose): 9.55 µM | CC50 (786-0; [1]): > 100 µM | GI50 (UACC-62; Homo sapiens, five dose): 16.9 µM | CC50 (UACC-62; [1]): > 100 µM | Growth percent (UACC-62; 10^−5 molar): 89.20% | TGI (UACC-62; five dose): >100 µM | GI50 (K-562; Homo sapiens, K562, five dose): > 100 µM | CC50 (K-562; Homo sapiens, K562, five dose, read-out: LC50 (the source's name)): > 100 µM | Growth percent (K-562; 10^−5 molar): 90.61% | TGI (K-562; five dose): >100 µM | Growth percent (HT29; 10^−5 molar): 77.16% | TGI (HT29; five dose): >100 µM | LC50 (concentration killing 50% of cells) (HT29; Homo sapiens, HT-29, five dose): > 100 µM | Growth percent (COLO 205; 10^−5 molar): 80.79% | TGI (COLO 205; five dose): >100 µM | LC50 (COLO 205; Homo sapiens, five dose): > 100 µM | GI50 (NCI-H23; Homo sapiens, five dose): 15.2 µM | LC50 (lethal concentration 50%) (NCI-H23; Homo sapiens, five dose): > 100 µM | Growth percent (NCI-H23; 10^−5 molar): 74.37% | TGI (NCI-H23; five dose): >100 µM | Growth percent (ACHN; 10^−5 molar): 51.82% | TGI (ACHN; five dose): >100 µM | GI50 (ACHN; Homo sapiens, five dose): 4.02 µM | CC50 (ACHN; [1]): > 100 µM | GI50 (MDA-MB-435; Homo sapiens, five dose): > 100 µM | CC50 (MDA-MB-435; [1]): > 100 µM | Growth percent (MDA-MB-435; 10^−5 molar): 89.58% | TGI (MDA-MB-435; five dose): >100 µM | GI50 (NCI-H460; Homo sapiens, five dose): 5 µM | LC50 (NCI-H460; Homo sapiens, five dose): > 100 µM | Growth percent (NCI-H460; 10^−5 molar): 64.41% | TGI (NCI-H460; five dose): >100 µM | GI50 (NCI-H522; Homo sapiens, five dose): 25.3 µM | LC50 (concentration causing 50% net cell kill) (NCI-H522; Homo sapiens, five dose): > 100 µM | Growth percent (NCI-H522; 10^−5 molar): 75.71% | TGI (NCI-H522; five dose): >100 µM | GI50 (OVCAR-8; Homo sapiens, five dose): 7.75 µM | CC50 (OVCAR-8; [1]): > 100 µM | Growth percent (OVCAR-8; 10^−5 molar): 68.33% | TGI (OVCAR-8; five dose): >100 µM | GI50 (KM12; Homo sapiens, five dose): 48.3 µM | LC50 (KM12; Homo sapiens, five dose): > 100 µM | Growth percent (KM12; 10^−5 molar): 80.34% | TGI (KM12; five dose): >100 µM | GI50 (SK-OV-3; Homo sapiens, five dose): 3.56 µM | CC50 (SK-OV-3; [1]): > 100 µM | Growth percent (SK-OV-3; 10^−5 molar): 36.71% | TGI (SK-OV-3; five dose): 13.90 µM | GI50 (M14; Homo sapiens, five dose): > 100 µM | LC50 (M14; Homo sapiens, five dose): > 100 µM | Growth percent (M14; 10^−5 molar): 87.29% | TGI (M14; five dose): >100 µM | GI50 (PC-3; Homo sapiens, five dose): 56.9 µM | CC50 (PC-3; [1]): > 100 µM | Growth percent (PC-3; 10^−5 molar): 72.70% | TGI (PC-3; five dose): >100 µM | GI50 (SR; Homo sapiens, five dose): > 100 µM | LC50 (50% lethal concentration) (SR; Homo sapiens, five dose): > 100 µM | Growth percent (SR; 10^−5 molar): 85.46% | TGI (SR; five dose): >100 µM | GI50 (U251; Homo sapiens, U-251): 4.41 µM | LC50 (U251; Homo sapiens, U-251): > 100 µM | TGI (U251): 25.10 µM | GI50 (RPMI-8226; Homo sapiens, five dose): > 100 µM | CC50 (RPMI-8226; [1]): > 100 µM | Growth percent (RPMI-8226; 10^−5 molar): 88.54% | TGI (RPMI-8226; five dose): >100 µM | GI50 (MOLT-4; Homo sapiens, five dose): > 100 µM | CC50 (MOLT-4; [1]): > 100 µM | Growth percent (MOLT-4; 10^−5 molar): 92.42% | TGI (MOLT-4; five dose): >100 µM | GI50 (SNB-19; Homo sapiens, five dose): 8.56 µM | LC50 (concentration killing 50% of cells) (SNB-19; Homo sapiens, five dose): > 100 µM | Growth percent (SNB-19; 10^−5 molar): 102.93% | TGI (SNB-19; five dose): >100 µM | GI50 (T-47D; Homo sapiens, T47D, five dose): 1260 nM | CC50 (T-47D; Homo sapiens, T47D, five dose, read-out: LC50 (the source's name)): > 100 µM | Growth percent (T-47D; 10^−5 molar): 38.08% | TGI (T-47D; five dose): 7.11 µM | GI50 (60 cancer cell lines; 60 cell, mean over panel, five dose): 11.2 µM | CC50 (60 cancer cell lines; 60 cell, mean over panel, five dose, read-out: LC50, Mean): 91.2 µM | Growth percent, Delta (60 cancer cell lines; delta over panel, 10^−5 molar): 81.80% | Growth percent, Mean (60 cancer cell lines; mean over panel, 10^−5 molar): 71.97% | TGI, Mean (60 cancer cell lines; mean over panel, five dose): 53.70 µM | Growth percent, Range (60 cancer cell lines; range over panel, 10^−5 molar): 112.76% | Growth percent (RXF 393): 71.08% | GI50 (MALME-3M; Homo sapiens, five dose): > 100 µM | LC50 (MALME-3M; Homo sapiens, five dose): > 100 µM | Growth percent (MALME-3M; 10^−5 molar): 77.59% | TGI (MALME-3M; five dose): >100 µM | LC50 (SW-620; Homo sapiens, five dose): > 100 µM | Growth percent (SW-620; 10^−5 molar): 78.97% | TGI (SW-620; five dose): >100 µM | GI50 (MDA-MB-486; 60 cell, five dose): 30 nM | CC50 (MDA-MB-486; 60 cell, five dose, read-out: LC50 (the source's name)): 63.1 µM | Growth percent (MDA-MB-486; 10^−5 molar): −9.83% | TGI (MDA-MB-486; five dose): 0.66 µM | Growth percent (HCT-116; 10^−5 molar): 66.87% | TGI (HCT-116; five dose): >100 µM | GI50 (HCT-116; Homo sapiens, five dose): 5.59 µM | LC50 (concentration killing 50% of cells) (HCT-116; Homo sapiens, five dose): > 100 µM | LC50 (SK-MEL-28; Homo sapiens, five dose): > 100 µM | Growth percent (SK-MEL-28; 10^−5 molar): 84.20% | TGI (SK-MEL-28; five dose): >100 µM | GI50 (MCF7; Homo sapiens, five dose): 40 nM | CC50 (MCF7; [1]): > 100 µM | Growth percent (MCF7; 10^−5 molar): 16.01% | TGI (MCF7; five dose): 18.60 µM | Growth percent (HOP-62; 10^−5 molar): 66.53% | TGI (HOP-62; five dose): 5.92 µM | GI50 (HOP-62; Homo sapiens, five dose): 2430 nM | LC50 (lethal concentration 50) (HOP-62; Homo sapiens, five dose): 27.7 µM | GI50 (MDA-MB-231/ATCC; Homo sapiens, five dose): 2360 nM | CC50 (MDA-MB-231/ATCC; [1]): > 100 µM | Growth percent (MDA-MB-231/ATCC; 10^−5 molar): 32.67% | TGI (MDA-MB-231/ATCC; five dose): 34.80 µM | GI50 (NCI/ADR-RES; Homo sapiens, five dose): 43 µM | CC50 (NCI/ADR-RES; [1]): > 100 µM | Growth percent (NCI/ADR-RES; 10^−5 molar): 77.36% | TGI (NCI/ADR-RES; five dose): >100 µM | Growth percent (HL-60(TB)): 98.82% | GI50 (NCI-H226; Homo sapiens, five dose): 1840 nM | LC50 (concentration giving 50% net cell kill) (NCI-H226; Homo sapiens, five dose): > 100 µM | Growth percent (NCI-H226; 10^−5 molar): 79.35% | GI50 (SF-268; Homo sapiens, five dose): 13.8 µM | CC50 (SF-268; [1]): > 100 µM | Growth percent (SF-268; 10^−5 molar): 73.68% | TGI (SF-268; five dose): >100 µM | GI50 (LOX IMVI; Homo sapiens): > 100 µM | LC50 (LOX IMVI; Homo sapiens): > 100 µM | TGI (LOX IMVI): >100 µM | GI50 (SK-MEL-5; Homo sapiens, five dose): 4.23 µM | LC50 (SK-MEL-5; Homo sapiens, five dose): > 100 µM | Growth percent (SK-MEL-5; 10^−5 molar): 92.81% | TGI (SK-MEL-5; five dose): >100 µM | Growth percent (A498; 10^−5 molar): 86.46% | TGI (A498; five dose): 39.20 µM | GI50 (A498; Homo sapiens, five dose): 8.05 µM | CC50 (A498; [1]): > 100 µM | GI50 (TK-10; Homo sapiens, five dose): 5.02 µM | CC50 (TK-10; [1]): > 100 µM | Growth percent (TK-10; 10^−5 molar): 75.80% | TGI (TK-10; five dose): 22.30 µM
